Tested on: tumor (transplanted cancer cells carrying fluorescent gene)
Assay: Animal tumor model, tumor size recorded via in vivo imaging system (IVIS)
Conditions: mouse model, after 28 days of drug treatment
Protocol: Under the in vivo experiment of animal tumor model, first a mouse model treated with doxorubucin was prepared as the control group, and another mouse model treated with the oral drug carrier containing doxorubucin was prepared as the experimental group. After drug treatment, the mouse models were recorded the variation of tumor size via in vivo imaging system (IVIS) (because of the mice transplanted with the cancer cells carrying fluorescent gene).
FIG. 6A and 6B are […] of the experimental group that the mouse model was treated with drug at 0 day and after 28 days. The tumor size of the mouse model in the experimental group was 65% compared to before treatment. FIG. 6C and 6D are IVIS photos of the control group that the mouse model was treated with drug at 0 day and after 28 days. […] FIG. 7 is a variation graph in fluorescence values of tumor cells tested by IVIS, and the tumor cells were from the above mouse model treated with drug.

Structure (SMILES): COc1cccc2c1C(=O)c1c(O)c3c(c(O)c1C2=O)C[C@@](O)(C(=O)CO)C[C@@H]3O[C@H]1C[C@H](N)[C@H](O)[C@H](C)O1 [doxorubucin, doxorubicin]
- tumor size compared to before treatment: 200%

Reference: patent US20130323303A1, “DRUG CARRIER AND PREPARATION METHOD THEREOF” (NATIONAL CHIAO TUNG UNIVERSITY, priority 2012, published 2013)
